The assay has as its target T1, BRM (Homo sapiens, UniProt P51531).
T1 construct: Western Blot Screen of BRM Degradation in SW1573 Cells; endogenous in cells; host or cells: SW1573 cells
Briefly: BRM degradation (Dmax and DC50) in SW1573 cells, Western blot screen / In-Cell Western screen. Type of assay: cell-based. The following applies: overnight (18-20 hours) treatment; for Dmax: read-out: Dmax (%)** (% degraded). An outline of the steps: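 Dmax and DC50 were derived from BRM levels normalised to an alpha-tubulin control, measured by chemiluminescent Western blotting of lysates or by PFA-fixed In-Cell Western on LI-COR Odyssey. SW1573 cells received compound overnight (18–20 h, 0.1% DMSO final).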
(In general: Immunoblotting shows a protein as a band on a membrane.)

T1 sequence (P51531 whole entry): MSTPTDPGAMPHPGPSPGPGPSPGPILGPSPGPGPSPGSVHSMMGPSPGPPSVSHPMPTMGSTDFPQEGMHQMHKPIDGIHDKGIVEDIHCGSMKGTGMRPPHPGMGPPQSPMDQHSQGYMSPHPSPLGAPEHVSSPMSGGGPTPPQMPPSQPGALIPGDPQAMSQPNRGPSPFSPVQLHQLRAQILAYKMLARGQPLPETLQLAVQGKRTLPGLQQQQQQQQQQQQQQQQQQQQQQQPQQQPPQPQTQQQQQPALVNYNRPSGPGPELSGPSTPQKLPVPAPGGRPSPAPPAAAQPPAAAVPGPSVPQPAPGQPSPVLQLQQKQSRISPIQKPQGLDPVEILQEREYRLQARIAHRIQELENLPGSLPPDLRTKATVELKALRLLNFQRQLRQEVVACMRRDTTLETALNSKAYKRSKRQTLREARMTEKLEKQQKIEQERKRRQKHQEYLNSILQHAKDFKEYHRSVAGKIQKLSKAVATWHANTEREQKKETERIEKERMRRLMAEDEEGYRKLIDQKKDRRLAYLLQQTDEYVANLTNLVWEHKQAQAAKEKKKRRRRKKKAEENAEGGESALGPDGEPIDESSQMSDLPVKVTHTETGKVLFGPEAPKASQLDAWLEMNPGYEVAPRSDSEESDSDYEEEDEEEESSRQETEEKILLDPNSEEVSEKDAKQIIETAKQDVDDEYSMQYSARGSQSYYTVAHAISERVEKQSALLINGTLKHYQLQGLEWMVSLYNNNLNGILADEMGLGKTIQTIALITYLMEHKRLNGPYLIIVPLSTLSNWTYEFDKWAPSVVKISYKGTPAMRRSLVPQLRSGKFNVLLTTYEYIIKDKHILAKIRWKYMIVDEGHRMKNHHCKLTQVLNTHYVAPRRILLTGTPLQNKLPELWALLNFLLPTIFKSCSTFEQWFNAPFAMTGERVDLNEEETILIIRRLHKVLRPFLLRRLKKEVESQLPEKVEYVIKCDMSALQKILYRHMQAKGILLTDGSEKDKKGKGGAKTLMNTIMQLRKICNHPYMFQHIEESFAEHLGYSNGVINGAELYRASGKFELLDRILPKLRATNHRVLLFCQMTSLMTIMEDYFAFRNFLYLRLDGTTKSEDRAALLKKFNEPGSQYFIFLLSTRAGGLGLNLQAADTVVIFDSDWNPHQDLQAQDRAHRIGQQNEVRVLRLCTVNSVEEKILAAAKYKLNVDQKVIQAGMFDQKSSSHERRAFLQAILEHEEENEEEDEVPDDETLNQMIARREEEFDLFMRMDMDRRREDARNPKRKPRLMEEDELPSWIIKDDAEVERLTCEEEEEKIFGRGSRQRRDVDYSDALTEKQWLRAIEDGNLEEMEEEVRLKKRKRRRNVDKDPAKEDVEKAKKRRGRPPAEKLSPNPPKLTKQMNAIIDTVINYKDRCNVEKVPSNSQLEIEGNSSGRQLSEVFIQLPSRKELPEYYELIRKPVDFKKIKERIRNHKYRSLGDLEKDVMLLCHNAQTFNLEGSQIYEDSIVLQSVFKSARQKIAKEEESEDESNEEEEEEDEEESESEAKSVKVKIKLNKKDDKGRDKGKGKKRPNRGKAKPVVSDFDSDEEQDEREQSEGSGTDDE

For the molecule `CC(C)[C@@H](C(=O)N1C[C@H](O)C[C@H]1C(=O)N[C@@H](C)c1ccc(C#N)cc1)c1cc(N2CCC(OCCN3CCC(Oc4cc(N5C6CCC5CN(c5cc(-c7ccccc7O)nnc5N)C6)ccn4)CC3)CC2)no1` [Compound 151, (2S,4R)-1-[(2R)-2-{3-[4-(2-{4-[(4-{3-[3-amino-6-(2-hydroxyphenyl)pyridazin-4-yl]-3,8-diazabicyclo[3.2.1]octan-8-yl}pyridin-2-yl)oxy]piperidin-1-yl}ethoxy)piperidin-1-yl]-1,2-oxazol-5-yl}-3-methylbutanoyl]-N-[(1S)-1-(4-cyanophenyl)ethyl]-4-hydroxypyrrolidine-2-carboxamide], the DC50 fell in the range of 2.5 to 10 nM and the greatest degradation seen (Dmax) is over 75%. Consider `CC(C)[C@H](C(=O)N1C[C@H](O)C[C@H]1C(=O)N[C@@H](C)c1ccc(C#N)cc1)c1cc(N2CCC(OCCN3CCC(O[C@H]4C[C@H](Oc5cc(N6C7CCC6CN(c6cc(-c8ccccc8O)nnc6N)C7)ccn5)C4)CC3)CC2)no1` [Compound 152, (2S,4R)-N-[(1S)-1-(4-cyanophenyl)ethyl]-4-hydroxy-1-[(2S)-3-methyl-2-{3-[4-(2-{4-[(1r,3r)-3-[(4-{3-[3-amino-6-(2-hydroxyphenyl)pyridazin-4-yl]-3,8-diazabicyclo[3.2.1]octan-8-yl}pyridin-2-yl)oxy]cyclobutoxy]piperidin-1-yl}ethoxy)piperidin-1-yl]-1,2-oxazol-5-yl}butanoyl]pyrrolidine-2-carboxamide], for which the DC50 is at least 30 nM. As for `CC(C)[C@@H](C(=O)N1C[C@H](O)C[C@H]1C(=O)N[C@@H](C)c1ccc(C#N)cc1)c1cc(N2CCC(OCCN3CCC(O[C@H]4C[C@H](Oc5cc(N6C7CCC6CN(c6cc(-c8ccccc8O)nnc6N)C7)ccn5)C4)CC3)CC2)no1` [Compound 153, (2S,4R)-N-[(1S)-1-(4-cyanophenyl)ethyl]-4-hydroxy-1-[(2R)-3-methyl-2-{3-[4-(2-{4-[(1r,3r)-3-[(4-{3-[3-amino-6-(2-hydroxyphenyl)pyridazin-4-yl]-3,8-diazabicyclo[3.2.1]octan-8-yl}pyridin-2-yl)oxy]cyclobutoxy]piperidin-1-yl}ethoxy)piperidin-1-yl]-1,2-oxazol-5-yl}butanoyl]pyrrolidine-2-carboxamide], the DC50 is under 2.5 nM and the greatest degradation seen (Dmax) was over 75%. `CC(C)[C@H](C(=O)N1C[C@H](O)C[C@H]1C(=O)N[C@@H](C)c1ccc(C#N)cc1)c1cc(N2CCC(OCCN3CCC(Oc4cc(N5CCN(c6cc(-c7ccccc7O)nnc6N)CC5)ccn4)CC3)CC2)no1` [Compound 154, (2S,4R)-1-[(2S)-2-{3-[4-(2-{4-[(4-{4-[3-amino-6-(2-hydroxyphenyl)pyridazin-4-yl]piperazin-1-yl}pyridin-2-yl)oxy]piperidin-1-yl}ethoxy)piperidin-1-yl]-1,2-oxazol-5-yl}-3-methylbutanoyl]-N-[(1S)-1-(4-cyanophenyl)ethyl]-4-hydroxypyrrolidine-2-carboxamide] returned a half-maximal degradation concentration (DC50) of at least 30 nM.

On to `CC(C)[C@@H](C(=O)N1C[C@H](O)C[C@H]1C(=O)N[C@@H](C)c1ccc(C#N)cc1)c1cc(N2CCC(OCCN3CCC(Oc4cc(N5CCN(c6cc(-c7ccccc7O)nnc6N)CC5)ccn4)CC3)CC2)no1` [Compound 155, (2S,4R)-1-[(2R)-2-{3-[4-(2-{4-[(4-{4-[3-amino-6-(2-hydroxyphenyl)pyridazin-4-yl]piperazin-1-yl}pyridin-2-yl)oxy]piperidin-1-yl}ethoxy)piperidin-1-yl]-1,2-oxazol-5-yl}-3-methylbutanoyl]-N-[(1S)-1-(4-cyanophenyl)ethyl]-4-hydroxypyrrolidine-2-carboxamide], for which the half-maximal degradation concentration (DC50) lay within 10 to 30 nM and the maximal degradation (Dmax) was over 75%. On the same counts, the results for `CC(C)[C@@H](C(=O)N1C[C@H](O)C[C@H]1C(=O)N[C@@H](C)c1ccc(C#N)cc1)c1cc(N2CCC(CN3CC[C@H](Oc4cc(N5C6CCC5CN(c5cc(-c7ccccc7O)nnc5N)C6)ccn4)[C@H](F)C3)CC2)no1` [Compound 156, (2S,4R)-1-[(2R)-2-[3-(4-{[(3R,4S)-4-[(4-{3-[3-amino-6-(2-hydroxyphenyl)pyridazin-4-yl]-3,8-diazabicyclo[3.2.1]octan-8-yl}pyridin-2-yl)oxy]-3-fluoropiperidin-1-yl]methyl}piperidin-1-yl)-1,2-oxazol-5-yl]-3-methylbutanoyl]-N-[(1S)-1-(4-cyanophenyl)ethyl]-4-hydroxypyrrolidine-2-carboxamide] are under 2.5 nM and over 75%. On the same counts, the results for `CC(C)[C@@H](C(=O)N1C[C@H](O)C[C@H]1C(=O)N[C@@H](C)c1ccc(C#N)cc1)c1cc(N2CCC(CN3CC[C@@H](Oc4cc(N5C6CCC5CN(c5cc(-c7ccccc7O)nnc5N)C6)ccn4)[C@@H](F)C3)CC2)no1` [Compound 157, (2S,4R)-1-[(2R)-2-[3-(4-{[(3S,4R)-4-[(4-{3-[3-amino-6-(2-hydroxyphenyl)pyridazin-4-yl]-3,8-diazabicyclo[3.2.1]octan-8-yl}pyridin-2-yl)oxy]-3-fluoropiperidin-1-yl]methyl}piperidin-1-yl)-1,2-oxazol-5-yl]-3-methylbutanoyl]-N-[(1S)-1-(4-cyanophenyl)ethyl]-4-hydroxypyrrolidine-2-carboxamide] are under 2.5 nM and over 75%.

The term DC50 denotes the concentration at which degradation of the target reaches its halfway point. Read a low DC50 as a more potent degrader. The term Dmax denotes the greatest extent of degradation seen.

For the origin of these results see patent US20250059198A1, “BRM DEGRADING COMPOUNDS AND ASSOCIATED METHODS OF USE” (Arvinas Operations, Inc., priority 2021, published 2025).
